Source: patent publication US6391917B1, “Dialkyl ureas as calcitonin mimetics” (ZymoGenetics, Inc., priority 1998, dated 2002)

Target: T1, Human calcitonin receptor (Homo sapiens, UniProt P30988)
T1 construct: expressed in transfected cells; host or cells: BHK-570 (Hollex-1)
T1 sequence (P30988 25-474): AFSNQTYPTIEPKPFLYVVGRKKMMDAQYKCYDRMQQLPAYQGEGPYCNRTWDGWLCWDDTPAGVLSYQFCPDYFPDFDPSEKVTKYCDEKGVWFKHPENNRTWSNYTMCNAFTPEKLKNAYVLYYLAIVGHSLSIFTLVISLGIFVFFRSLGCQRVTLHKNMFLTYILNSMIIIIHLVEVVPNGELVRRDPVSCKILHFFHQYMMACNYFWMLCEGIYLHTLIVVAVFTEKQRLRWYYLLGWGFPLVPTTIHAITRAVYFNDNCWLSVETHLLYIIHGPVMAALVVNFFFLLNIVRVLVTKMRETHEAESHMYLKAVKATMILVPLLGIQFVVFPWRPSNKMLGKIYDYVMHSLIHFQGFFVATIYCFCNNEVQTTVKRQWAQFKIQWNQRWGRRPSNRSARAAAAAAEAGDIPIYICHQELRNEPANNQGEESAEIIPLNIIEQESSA
Assay: CRE-luciferase assay for calcitonin mimetics (Hollex-1)
Assay type: cell-based
Protocol: CRE-Luciferase Assay Method for Calcitonin Mimetics
Human calcitonin receptor-positive and receptor-negative BHK-570 (Baby Hamster Kidney) cell lines were maintained by serial passage in growth medium (DMEM supplemented with 10% heat-inactivated fetal calf serum (HI-FCS), 2 mM L-glutamine, 1 mM sodium pyruvate, 250 nM MTX, and 1 mg/mL G418). On the day prior to assay, cells were trypsinized, adjusted to 2.5×10^5 cells/ml in growth medium, plated in opaque white Dynatech Microlite microtiter tissue culture plates at 50 μL/well, and grown overnight to confluence (37° C., 5% CO2 atmosphere).
Test substances were prepared in DMSO or 10% DMF at 100 times the final desired assay concentration. […] Controls were included on each plate: untreated wells (basal), […], and 100 nM human calcitonin. DMSO or DMF was included in control wells at a concentration equal to that in test samples (not to exceed a final assay concentration of 2% DMSO or 0.5% DMF, with a preferred maximum of 1% DMSO or 0.1% DMF).
Plates were incubated for 3 to 8 hours (4 hours preferred) at 37° C. in an atmosphere of 5% CO2. Following induction, luciferase activity was measured using a Promega luciferase assay kit (E1500) according to the assay kit protocol (Promega Corp., Madison, Wis.). Briefly, assay medium was removed and cells were washed once with phosphate buffered saline (PBS). After the wash, 25 μl of lysis buffer was added to each well, and the plates were incubated for 15 minutes at room temperature. Fifty microliters of Luciferase Assay Substrate (Promega, Corp.) was added to each well and the plates were transferred to a Labsystems Lumiscan microtiter luminometer (Labsystems Inc., Morton Grove, Ill.). The amount of luminescence (relative light units, RLU) was determined following a 0.1 second/well integration of signal. Basal (uninduced) luciferase signal was subtracted from all measurements, and the luciferase signal induced by test samples was expressed as a percentage of the signal in the calcitonin and forskolin controls. Specificity of the luciferase induction for calcitonin receptor-positive cell lines was determined by comparing the percent control values in the calcitonin receptor-positive line (Hollex-1) to those observed in the calcitonin receptor-negative cell line (KZ10-20-48/Zem 228) and the PTH receptor-positive cell line (KZ10-20-48/PTH-20) described below. Samples inducing a signal over the basal level were selected for further characterization, see Table 1 for examples.

SMILES	Luciferase induction (% of maximum luciferase induction produced by CT, 100 nM) (crude compound 3.125 μg/ml) [%]	Luciferase induction (% of maximum luciferase induction produced by CT, 100 nM) (crude compound 6.25 μg/ml) [%]	Luciferase induction (% of maximum luciferase induction produced by CT, 100 nM) (crude compound 12.5 μg/ml) [%]	Luciferase induction (% of maximum luciferase induction produced by CT, 100 nM) (crude compound 25 μg/ml) [%]	Luciferase induction (% of maximum luciferase induction produced by CT, 100 nM) (crude compound 50 μg/ml) [%]
CCNC(=O)C(Cc1ccc(OCC)cc1)NC(=O)Nc1cc(C(C)(C)C)ccc1C(C)(C)C (centres unmarked) [628-007]	0.76	10.61	31.97	55.34	31.73
CCNC(=O)C(Cc1cn(CC)c2ccccc12)NC(=O)Nc1cc(C(C)(C)C)ccc1C(C)(C)C (centres unmarked) [628-008]	−1.31	2.91	20.07	50.93	50.39
C=CCNC(=O)[C@@H](Cc1ccccc1)NC(=O)Nc1cc(C(C)(C)C)ccc1C(C)(C)C [628-013]	3.51	17.98	51.62	69.62	64.26
C=CCNC(=O)C(Cc1ccc(OCC=C)cc1)NC(=O)Nc1cc(C(C)(C)C)ccc1C(C)(C)C (centres unmarked) [628-015]	1.62	14.69	43.2	72.17	71.49
C=CCNC(=O)C(Cc1cn(CC=C)c2ccccc12)NC(=O)Nc1cc(C(C)(C)C)ccc1C(C)(C)C (centres unmarked) [628-016]	10.72	43.89	76.44	80.63	75.76
CCNC(=O)[C@@H](Cc1ccc(Cl)cc1)NC(=O)Nc1cc(C(C)(C)C)ccc1C(C)(C)C [628-022]	2.08	3.26	17.85	41.52	46.98
CCNC(=O)[C@@H](Cc1ccc(F)cc1)NC(=O)Nc1cc(C(C)(C)C)ccc1C(C)(C)C [628-023]	−0.46	7.84	32.04	46.84	41.79
CCNC(=O)[C@@H](Cc1ccc(I)cc1)NC(=O)Nc1cc(C(C)(C)C)ccc1C(C)(C)C [628-024]	−1.24	1.39	11.8	22.64	30.25
CCNC(=O)[C@@H](Cc1ccc2ccccc2c1)NC(=O)Nc1cc(C(C)(C)C)ccc1C(C)(C)C [628-025]	0.42	0.65	2.33	7.96	22.61
C=CCNC(=O)[C@@H](Cc1ccc(Cl)cc1)NC(=O)Nc1cc(C(C)(C)C)ccc1C(C)(C)C [628-032]		25.42	27.28	31.34	33.94
C=CCNC(=O)[C@@H](Cc1ccc(I)cc1)NC(=O)Nc1cc(C(C)(C)C)ccc1C(C)(C)C [628-034]		6.89	25.02	33.86	38.68
C=CCNC(=O)[C@H](NC(=O)Nc1cc(C(C)(C)C)ccc1C(C)(C)C)c1ccccc1 [628-036]		4.12	6.43	8.0	10.38
CC(C)(C)c1ccc(C(C)(C)C)c(NC(=O)N[C@H](Cc2ccc(Cl)cc2)C(=O)NCc2ccccc2)c1 [628-042]	19.16	49.17	59.74	68.69	60.41
CC(C)(C)c1ccc(C(C)(C)C)c(NC(=O)N[C@H](Cc2ccc(F)cc2)C(=O)NCc2ccccc2)c1 [628-043]	6.48	34.53	42.06	46.24	47.95
CC(C)(C)c1ccc(C(C)(C)C)c(NC(=O)N[C@H](Cc2ccc(I)cc2)C(=O)NCc2ccccc2)c1 [628-044]	10.65	24.08	29.35	26.23	30.14
CC(C)(C)c1ccc(C(C)(C)C)c(NC(=O)N[C@H](Cc2ccc3ccccc3c2)C(=O)NCc2ccccc2)c1 [628-045]	20.19	38.73	42.49	44.51	40.62
CC(C)(C)c1ccc(C(C)(C)C)c(NC(=O)N[C@H](Cc2ccc(Cl)cc2)C(=O)NCc2ccc3ccccc3c2)c1 [628-052]	9.57	23.59	36.63	40.21	38.27
CC(C)(C)c1ccc(C(C)(C)C)c(NC(=O)N[C@H](Cc2ccc(F)cc2)C(=O)NCc2ccc3ccccc3c2)c1 [628-053]	3.29	11.89	32.31	41.8	40.14
CC(C)(C)c1ccc(C(C)(C)C)c(NC(=O)N[C@H](Cc2ccc(I)cc2)C(=O)NCc2ccc3ccccc3c2)c1 [628-054]	10.73	27.05	42.54	47.47	54.86
